In patent US7799353B2, “Pharmaceutical mixture for hepatitis treatment and its preparation method” (Industrial Technology Research Institute, priority 2003, dated 2010):

Legend:
[1] = system: d-galactosamine-induced acute hepatitis; assay: d-galactosamine-induced acute hepatitis in rats, serum GOT/GPT (Embodiment 5, guanine positive control); type: in vivo; settings: for reduction of sGOT value / reduction of sGPT value: vs d-galactosamine group
Method: Male rats are randomly divided, with five rats in the individual group and 200±20 g of each. In the study, normal and d-galactosamine (Gal) groups are orally given with distilled water, testing groups are orally given with test articles (JM or BMEC-1 from different processes) dissolving in distilled water, positive control group is orally given with guanine (300 mg/kg), and each administration dosage is 10 ml/kg.
Half-hour later, each group is i.p. with d-galactosamine (500 mg/kg) except the normal group. Four and eight hours after d-galactosamine injection, the same dosages are administrated again. Twenty-four hours after d-galactosamine injection, the animals are sacrificed for collecting the blood, and then the serum GOT (Glutamyl Oxaloacetic Transaminase) and GPT (Glutamyl Pyrubic Transaminase) activities are measured by using HITACHI auto-analyzing system (model 7050) with UV method.

[2] = system: d-galactosamine-induced acute hepatitis; assay: d-galactosamine-induced acute hepatitis in rats, serum GOT/GPT (Embodiment 6, silymarin and guanine positive controls); type: in vivo
Method: (§1) Rats are randomly divided, with six rats in each group. The animals fasted for 24 hr before the experiment. In the study, normal and d-galactosamine (Gal) groups are orally given with distilled water, testing groups are orally given with 1 g/kg of the test articles (JM, BMEC-1 or BMEC-101 from different processes) dissolving in distilled water, and rats in positive control group are orally administrated with silymarin (200 mg/kg) and guanine (300 mg/kg). One hour later, each group is i.p. with d-galactosamine (400 mg/kg), and the normal group is i.p. with saline. Four and eight hours after d-galactosamine injection, the same dosages are administrated again. Twenty-four hours after d-galactosamine injection, the animals are anesthetized with ether, and the blood is collected from the carotid artery. The serum is separated and stands still at room temperature for 1 hr, and centrifuged (Backman centrifuge, GS-6R, 3000 rpm) for 10 mins. The activities of rat serum GOT and GPT are measured.

[3] = system: d-galactosamine-induced liver damage; assay: Histopathological sections of liver of d-galactosamine-induced acute hepatitis animals; type: in vivo, rats; settings: 300 mg/kg
Method: as §1
After blood is collected, the liver of the acute hepatitis animal induced by d-galactosamine is separated, and liver tissue around 0.5 cm^3 in each folium is taken out. Those tissues are fixed in 10% neutral formalin for 1 to 2 weeks, then dehydrated and paraffin embedded by the dehydration and wax-exudation device, and cut into 4 to 5 μm liver slices by rotary microtome. The slices are stained with Haematoxylin and Eosin, and the pathological patterns are observed under an optical microscope.

[4] = Table 2, oral 300 × 3 mg/kg, Gal 500 mg/kg i.p., serum 24 h after Gal, mean ± SEM, n = 5
[5] = Table 2 experiment, positive control, oral 300 × 3 mg/kg
[6] = Table 3, oral 300 × 3 mg/kg, Gal 500 mg/kg i.p., mean ± SEM, n = 5
[7] = Table 3 experiment, oral 300×3 mg/kg
[8] = Table 4 Batch 1, oral 300 × 3 mg/kg, Gal 500 mg/kg i.p., mean ± SEM, n = 5
[9] = Table 4 Batch 1, oral 300×3 mg/kg
[10] = Table 4 Batch 2, oral 300 × 3 mg/kg, Gal 500 mg/kg i.p., mean ± SEM, n = 5
[11] = Table 4 Batch 2, oral 300×3 mg/kg
[12] = Table 5, oral 300 × 3 mg/kg, Gal 400 mg/kg i.p., mean ± SEM, n = 6
[13] = Table 5 experiment, oral 300×3 mg/kg, vs d-galactosamine group

## Nc1nc2nc[nH]c2c(=O)[nH]1 [guanine]
[1]; [4]
  sGOT: 980.0 ± 92.5 U/L
  sGPT: 589.6 ± 54.6 U/L
[1]; [5]
  reduction of sGOT value: 24%
  reduction of sGPT value: 32%
[1]; [6]
  sGOT: 954.8 ± 122.1 U/L
  sGPT: 514.4 ± 78.2 U/L
[1]; [7]
  reduction of sGOT value: 45%
  reduction of sGPT value: 59%
[1]; [8]
  sGOT: 1055.6 ± 150.1 U/L
  sGPT: 699.2 ± 103.6 U/L
[1]; [9]
  reduction of sGOT value: 49%
  reduction of sGPT value: 41%
[1]; [10]
  GOT: 1080.0 ± 181.7 U/L
  GPT: 584.0 ± 114.9 U/L
[1]; [11]
  reduction of sGOT value: 42%
  reduction of sGPT value: 49%
[2]; [12]
  sGOT: 160.7 ± 33.5 U/L
  sGPT: 55.1 ± 19.2 U/L
[2]; [13]
  reduction of sGOT value: 70%
  reduction of sGPT value: 79%
[3]; liver fibrosis grade
  Fibrosis: 1
[3]; liver histopathology grade
  Balloon degeneration: 0
  Bile duct proliferation: 1
  Fatty change: 1
  Inflammation: 1
  Mitosis: 0
  Necrosis: 0
